Data taken from ChEMBL document CHEMBL1201862, “PubChem BioAssay data set” (2004).
Calls of active or inactive are those of the source.

What was measured:
[1] = target: T1, Type-1 angiotensin II receptor (Homo sapiens, UniProt P30556); assay: agonist activity at AGTR1 – cell-based, uHTS hits, selectivity assay for APJ receptor agonist project, dose response (AID 488865); assay type: functional;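 also: beta-arrestin recruitment to AT1 measured by enzyme fragment complementation luminescence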
T1 sequence (P30556 whole entry): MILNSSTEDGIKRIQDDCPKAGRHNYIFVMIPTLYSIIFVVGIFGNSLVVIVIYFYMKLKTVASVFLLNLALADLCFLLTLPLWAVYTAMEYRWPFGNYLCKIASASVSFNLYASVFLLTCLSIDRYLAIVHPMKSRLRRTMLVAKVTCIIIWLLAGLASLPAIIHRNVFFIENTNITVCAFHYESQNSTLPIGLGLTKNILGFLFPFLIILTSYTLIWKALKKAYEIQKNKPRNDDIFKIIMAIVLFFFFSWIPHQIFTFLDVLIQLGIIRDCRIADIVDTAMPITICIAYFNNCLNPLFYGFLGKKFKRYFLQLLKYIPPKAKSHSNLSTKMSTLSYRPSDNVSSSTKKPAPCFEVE

[2] = target: T2, Alkaline phosphatase, tissue-nonspecific isozyme (Homo sapiens, UniProt P05186); assay: activation of tissue-nonspecific alkaline phosphatase – biochemical, TNAP isozyme, mouse IAP uHTS hits, selectivity assay for mouse IAP activator project, dose response (AID 488880); assay type: functional
T2 sequence (P05186 whole entry): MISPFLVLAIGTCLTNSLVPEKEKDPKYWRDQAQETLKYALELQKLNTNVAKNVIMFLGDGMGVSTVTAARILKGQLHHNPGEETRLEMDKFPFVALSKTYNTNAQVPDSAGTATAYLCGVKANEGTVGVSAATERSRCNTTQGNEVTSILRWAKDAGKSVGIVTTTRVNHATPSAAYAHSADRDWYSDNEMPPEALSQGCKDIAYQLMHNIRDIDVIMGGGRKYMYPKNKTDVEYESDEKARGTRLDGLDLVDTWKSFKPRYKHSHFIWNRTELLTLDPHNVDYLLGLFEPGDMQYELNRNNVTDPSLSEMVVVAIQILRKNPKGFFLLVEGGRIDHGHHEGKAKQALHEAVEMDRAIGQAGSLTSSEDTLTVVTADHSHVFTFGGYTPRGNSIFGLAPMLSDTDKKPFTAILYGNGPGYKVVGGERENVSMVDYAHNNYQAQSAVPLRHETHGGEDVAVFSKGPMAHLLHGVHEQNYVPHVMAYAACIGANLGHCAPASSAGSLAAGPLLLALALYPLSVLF

[3] = target: T3, Rac GTPase-activating protein 1 (Homo sapiens, UniProt Q9H0H5); assay: blockers of MgcRacGAP-driven Rac1 GTP hydrolysis – biochemical, ADP Hunter fluorescence, primary and confirmatory, confirmation (AID 624330); assay type: functional
T3 sequence (Q9H0H5 whole entry): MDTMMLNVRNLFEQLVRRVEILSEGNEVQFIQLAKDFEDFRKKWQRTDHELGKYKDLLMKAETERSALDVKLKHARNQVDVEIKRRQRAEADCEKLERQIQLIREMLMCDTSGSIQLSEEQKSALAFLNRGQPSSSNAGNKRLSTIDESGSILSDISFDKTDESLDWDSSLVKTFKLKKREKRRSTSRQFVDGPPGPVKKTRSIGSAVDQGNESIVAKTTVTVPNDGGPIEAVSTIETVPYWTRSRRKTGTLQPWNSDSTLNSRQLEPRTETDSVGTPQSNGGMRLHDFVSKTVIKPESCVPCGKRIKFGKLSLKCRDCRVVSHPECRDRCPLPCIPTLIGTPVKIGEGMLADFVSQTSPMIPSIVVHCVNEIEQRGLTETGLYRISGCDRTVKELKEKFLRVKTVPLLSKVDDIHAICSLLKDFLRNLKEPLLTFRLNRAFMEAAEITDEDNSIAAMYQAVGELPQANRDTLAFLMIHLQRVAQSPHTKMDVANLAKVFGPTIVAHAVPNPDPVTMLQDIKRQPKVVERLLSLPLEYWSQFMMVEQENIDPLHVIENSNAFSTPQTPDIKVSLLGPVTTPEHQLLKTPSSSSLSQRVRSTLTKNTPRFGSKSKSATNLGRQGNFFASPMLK

[4] = target: Intestinal-type alkaline phosphatase (Mus musculus, UniProt P24822); assay: mouse intestinal alkaline phosphatase activators, dose response, biochemical, luminescence, uHTS hits (AID 488783); assay type: functional
Sequence of Intestinal-type alkaline phosphatase (Mus musculus, UniProt P24822) (P24822 whole entry): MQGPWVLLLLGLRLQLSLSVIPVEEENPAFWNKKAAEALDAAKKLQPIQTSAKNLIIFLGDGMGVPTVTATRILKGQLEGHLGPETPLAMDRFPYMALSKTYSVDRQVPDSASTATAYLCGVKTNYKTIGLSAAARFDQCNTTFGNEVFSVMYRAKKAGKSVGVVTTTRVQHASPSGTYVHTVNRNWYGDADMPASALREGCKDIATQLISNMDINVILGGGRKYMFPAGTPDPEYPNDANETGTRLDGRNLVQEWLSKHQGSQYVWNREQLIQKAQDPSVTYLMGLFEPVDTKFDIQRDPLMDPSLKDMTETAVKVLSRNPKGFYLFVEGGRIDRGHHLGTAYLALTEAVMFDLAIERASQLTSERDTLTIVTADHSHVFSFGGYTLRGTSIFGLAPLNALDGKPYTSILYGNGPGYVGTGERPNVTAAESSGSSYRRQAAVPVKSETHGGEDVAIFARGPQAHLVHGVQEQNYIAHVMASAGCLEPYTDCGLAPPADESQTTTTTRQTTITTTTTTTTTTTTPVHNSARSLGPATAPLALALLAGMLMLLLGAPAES

[5] = target: Intestinal-type alkaline phosphatase (Homo sapiens, UniProt P09923); assay: activation of human intestinal alkaline phosphatase – biochemical, dose response (AID 488873); assay type: functional
Sequence of Intestinal-type alkaline phosphatase (Homo sapiens, UniProt P09923) (P09923 whole entry): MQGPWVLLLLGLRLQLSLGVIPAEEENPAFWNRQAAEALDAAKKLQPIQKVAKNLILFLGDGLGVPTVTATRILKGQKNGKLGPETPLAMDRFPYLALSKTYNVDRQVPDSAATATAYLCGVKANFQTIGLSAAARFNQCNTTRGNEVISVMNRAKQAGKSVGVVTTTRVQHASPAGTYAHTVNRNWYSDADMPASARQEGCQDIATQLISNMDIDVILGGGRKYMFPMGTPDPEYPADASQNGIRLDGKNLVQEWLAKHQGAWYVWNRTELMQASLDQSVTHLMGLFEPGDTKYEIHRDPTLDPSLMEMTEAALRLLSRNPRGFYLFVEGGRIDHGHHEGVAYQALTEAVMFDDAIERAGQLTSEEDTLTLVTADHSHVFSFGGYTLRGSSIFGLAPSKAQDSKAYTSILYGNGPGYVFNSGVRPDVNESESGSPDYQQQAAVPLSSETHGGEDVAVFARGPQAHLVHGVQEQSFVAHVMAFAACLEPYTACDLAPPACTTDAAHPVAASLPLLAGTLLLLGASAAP

[6] = target: Alkaline phosphatase, placental type (Homo sapiens, UniProt P05187); assay: human placental alkaline phosphatase inhibition – biochemical, luminescence, confirmation (AID 1512); assay type: functional
Sequence of Alkaline phosphatase, placental type (P05187 whole entry): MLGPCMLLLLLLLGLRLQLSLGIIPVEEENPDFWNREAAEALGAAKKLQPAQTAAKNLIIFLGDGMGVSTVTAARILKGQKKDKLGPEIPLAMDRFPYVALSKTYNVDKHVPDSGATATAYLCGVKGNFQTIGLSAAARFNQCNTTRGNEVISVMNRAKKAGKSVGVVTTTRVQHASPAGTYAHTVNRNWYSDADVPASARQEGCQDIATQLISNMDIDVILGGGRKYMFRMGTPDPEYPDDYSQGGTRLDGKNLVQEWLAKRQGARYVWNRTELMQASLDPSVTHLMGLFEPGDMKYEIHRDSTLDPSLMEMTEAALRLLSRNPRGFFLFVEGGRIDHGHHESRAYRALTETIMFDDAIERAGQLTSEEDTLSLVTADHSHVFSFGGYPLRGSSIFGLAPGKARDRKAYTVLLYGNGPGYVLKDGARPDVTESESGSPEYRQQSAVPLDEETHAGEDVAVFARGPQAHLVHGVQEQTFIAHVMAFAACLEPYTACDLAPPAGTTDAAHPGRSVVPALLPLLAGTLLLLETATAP

[7] = target: T2, Alkaline phosphatase, tissue-nonspecific isozyme; assay: potency against alkaline phosphatase TNAP – biochemical, luminescent, dose response, SAR follow-up (AID 1056)
[8] = target: Troponin, cardiac muscle (Homo sapiens, UniProt P19429+P45379+P63316); assay: compounds desensitizing RTF to calcium – biochemical, fluorescence, cardiac regulated thin filaments, triplicate IC50, dose response (AID 504742); assay type: protein-complex assay
[9] = target: Induced myeloid leukemia cell differentiation protein Mcl-1 (Homo sapiens, UniProt Q07820); assay type: functional
Sequence of Induced myeloid leukemia cell differentiation protein Mcl-1 (Q07820 whole entry): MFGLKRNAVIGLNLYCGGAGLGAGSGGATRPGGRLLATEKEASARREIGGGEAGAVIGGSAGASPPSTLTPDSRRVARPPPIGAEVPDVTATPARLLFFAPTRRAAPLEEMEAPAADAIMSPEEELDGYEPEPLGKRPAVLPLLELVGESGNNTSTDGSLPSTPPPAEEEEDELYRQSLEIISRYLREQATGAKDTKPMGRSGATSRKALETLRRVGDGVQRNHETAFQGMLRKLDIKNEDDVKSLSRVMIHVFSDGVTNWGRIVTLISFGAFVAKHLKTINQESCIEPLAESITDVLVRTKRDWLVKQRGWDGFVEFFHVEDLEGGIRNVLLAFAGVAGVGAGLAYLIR

[10] = target: T4, ORF 73 (Human herpesvirus 8, UniProt O40947); assay: KSHV LANA DNA-binding disruption – biochemical, fluorescence polarization, cherry-picked samples, dose response (AID 504725); design: species or system Human gammaherpesvirus 8;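 also: fluorescence polarization of a labeled DNA duplex reporting LANA DNA binding; potency is for inhibitors that block LANA binding to the DNA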
T4 sequence (O40947 whole entry): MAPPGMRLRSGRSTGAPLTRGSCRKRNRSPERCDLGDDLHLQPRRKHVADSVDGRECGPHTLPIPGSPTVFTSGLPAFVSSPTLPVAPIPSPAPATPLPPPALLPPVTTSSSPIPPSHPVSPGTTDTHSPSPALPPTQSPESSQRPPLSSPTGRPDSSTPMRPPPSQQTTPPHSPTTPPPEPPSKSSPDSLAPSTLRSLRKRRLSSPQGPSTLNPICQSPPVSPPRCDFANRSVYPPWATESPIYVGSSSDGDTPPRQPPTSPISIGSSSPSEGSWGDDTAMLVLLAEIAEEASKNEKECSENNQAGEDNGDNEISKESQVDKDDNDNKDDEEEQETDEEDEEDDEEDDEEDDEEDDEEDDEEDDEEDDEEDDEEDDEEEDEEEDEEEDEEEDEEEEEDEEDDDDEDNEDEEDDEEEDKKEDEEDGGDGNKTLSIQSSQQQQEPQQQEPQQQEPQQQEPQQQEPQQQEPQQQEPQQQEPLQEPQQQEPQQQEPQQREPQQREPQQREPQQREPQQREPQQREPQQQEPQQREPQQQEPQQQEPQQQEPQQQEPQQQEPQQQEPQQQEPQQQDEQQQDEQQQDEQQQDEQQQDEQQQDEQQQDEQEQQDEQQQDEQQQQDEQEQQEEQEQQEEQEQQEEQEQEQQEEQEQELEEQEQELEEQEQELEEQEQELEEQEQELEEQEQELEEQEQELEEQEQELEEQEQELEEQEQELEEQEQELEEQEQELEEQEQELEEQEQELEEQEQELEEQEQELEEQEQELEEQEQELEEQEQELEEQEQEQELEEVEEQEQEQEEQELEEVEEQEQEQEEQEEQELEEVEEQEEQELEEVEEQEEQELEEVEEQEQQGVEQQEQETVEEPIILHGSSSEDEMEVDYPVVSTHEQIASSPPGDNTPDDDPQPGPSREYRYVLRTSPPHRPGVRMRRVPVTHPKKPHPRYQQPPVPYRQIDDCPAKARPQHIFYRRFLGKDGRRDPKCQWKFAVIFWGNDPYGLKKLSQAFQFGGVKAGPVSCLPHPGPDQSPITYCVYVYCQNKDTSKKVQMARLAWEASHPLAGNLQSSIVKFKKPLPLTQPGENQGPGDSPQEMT

[11] = target: T5, Endoribonuclease toxin MazF (Escherichia coli K-12, UniProt P0AE70); assay: substrate-only fluorescence increase artefacts – biochemical, single-stranded RNase substrate, counter-screen for MazEF activator project, dose response (AID 588502); assay type: functional
T5 sequence (P0AE70 whole entry): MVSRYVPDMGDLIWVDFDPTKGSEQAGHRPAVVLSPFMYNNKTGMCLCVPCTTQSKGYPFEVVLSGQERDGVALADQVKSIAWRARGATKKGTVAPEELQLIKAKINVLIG

[12] = target: Caspase-7 (Homo sapiens, UniProt P55210); assay: caspase-7 enzyme inhibition, selectivity check – biochemical, DEVD-R110 fluorescence, cherry-pick, selectivity assay for caspase-6 inhibitor project, dose response (AID 743295); assay type: functional
Sequence of Caspase-7 (P55210 24-198 limits assumed): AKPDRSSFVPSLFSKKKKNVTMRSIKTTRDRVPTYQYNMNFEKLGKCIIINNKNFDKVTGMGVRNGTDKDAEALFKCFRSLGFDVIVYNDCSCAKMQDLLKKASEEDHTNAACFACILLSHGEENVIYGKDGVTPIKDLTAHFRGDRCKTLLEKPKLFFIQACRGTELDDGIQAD
Sequence of Caspase-7 (P55210 207-303 limits assumed): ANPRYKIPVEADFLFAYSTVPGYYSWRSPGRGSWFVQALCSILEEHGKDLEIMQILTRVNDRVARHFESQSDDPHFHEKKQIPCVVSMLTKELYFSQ

[13] = target: T5, Endoribonuclease toxin MazF; assay: activation of MazEF endoribonuclease cleavage – biochemical, fluorescence, single-stranded RNA substrate, uHTS hits, dose response (AID 588481); assay type: functional
[14] = target: 1-phosphatidylinositol 4,5-bisphosphate phosphodiesterase gamma-1 (Homo sapiens, UniProt P19174); assay: Counterscreen for inhibitors of phospholipase C isozymes (PLC-B3): Fluorescence-based biochemical high throughput dose response assay to identify inhibitors of phospholipase C isozymes (PLC-gamma1).
[15] = target: 1-phosphatidylinositol 4,5-bisphosphate phosphodiesterase beta-3 (Homo sapiens, UniProt Q01970); assay: Fluorescence-based biochemical high throughput dose response assay to identify inhibitors of phospholipase C isozymes (PLC-B3).
Sequence of 1-phosphatidylinositol 4,5-bisphosphate phosphodiesterase beta-3 (Q01970 whole entry): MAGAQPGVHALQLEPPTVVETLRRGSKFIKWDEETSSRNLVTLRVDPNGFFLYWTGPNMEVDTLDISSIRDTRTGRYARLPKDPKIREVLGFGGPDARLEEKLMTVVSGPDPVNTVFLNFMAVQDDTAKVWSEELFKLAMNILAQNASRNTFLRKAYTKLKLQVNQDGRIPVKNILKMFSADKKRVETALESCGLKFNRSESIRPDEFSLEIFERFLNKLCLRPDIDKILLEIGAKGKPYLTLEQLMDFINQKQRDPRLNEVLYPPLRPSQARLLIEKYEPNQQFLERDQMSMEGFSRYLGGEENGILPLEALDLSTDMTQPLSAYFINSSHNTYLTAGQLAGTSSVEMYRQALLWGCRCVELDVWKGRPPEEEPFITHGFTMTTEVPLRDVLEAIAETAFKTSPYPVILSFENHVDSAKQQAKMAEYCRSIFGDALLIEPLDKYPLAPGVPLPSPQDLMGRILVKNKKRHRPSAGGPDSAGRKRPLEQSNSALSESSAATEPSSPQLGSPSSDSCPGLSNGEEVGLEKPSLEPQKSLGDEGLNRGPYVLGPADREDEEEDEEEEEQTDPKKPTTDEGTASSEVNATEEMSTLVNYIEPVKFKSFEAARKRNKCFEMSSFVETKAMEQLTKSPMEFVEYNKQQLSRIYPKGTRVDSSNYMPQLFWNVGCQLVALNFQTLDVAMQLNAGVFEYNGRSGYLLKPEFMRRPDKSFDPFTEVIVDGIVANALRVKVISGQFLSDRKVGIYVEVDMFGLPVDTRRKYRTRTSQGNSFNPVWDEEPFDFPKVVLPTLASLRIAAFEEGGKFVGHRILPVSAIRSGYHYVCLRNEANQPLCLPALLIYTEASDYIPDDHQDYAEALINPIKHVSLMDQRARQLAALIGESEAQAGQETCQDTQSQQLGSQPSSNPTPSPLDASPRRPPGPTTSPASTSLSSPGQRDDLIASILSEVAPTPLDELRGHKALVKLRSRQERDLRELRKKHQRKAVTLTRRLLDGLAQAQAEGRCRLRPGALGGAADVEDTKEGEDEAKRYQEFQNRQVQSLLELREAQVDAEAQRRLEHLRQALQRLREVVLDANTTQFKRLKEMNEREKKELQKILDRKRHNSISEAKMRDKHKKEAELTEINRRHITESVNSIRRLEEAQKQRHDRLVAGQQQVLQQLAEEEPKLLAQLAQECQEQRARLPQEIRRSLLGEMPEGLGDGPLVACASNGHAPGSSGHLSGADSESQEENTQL

[16] = target: T6, Long-chain-fatty-acid--AMP ligase FadD28 (Mycobacterium tuberculosis, UniProt P9WQ59); assay: Fluorescence polarization aasay to screen for inhibitors that compete for the binding of FadD28 to a bisubstrate Measured in Biochemical System Using Plate Reader - 2147-01_Inhibitor_Dose_CherryPick_Activity.; assay type: functional, Mycobacterium tuberculosis H37Rv
T6 sequence (P9WQ59 whole entry): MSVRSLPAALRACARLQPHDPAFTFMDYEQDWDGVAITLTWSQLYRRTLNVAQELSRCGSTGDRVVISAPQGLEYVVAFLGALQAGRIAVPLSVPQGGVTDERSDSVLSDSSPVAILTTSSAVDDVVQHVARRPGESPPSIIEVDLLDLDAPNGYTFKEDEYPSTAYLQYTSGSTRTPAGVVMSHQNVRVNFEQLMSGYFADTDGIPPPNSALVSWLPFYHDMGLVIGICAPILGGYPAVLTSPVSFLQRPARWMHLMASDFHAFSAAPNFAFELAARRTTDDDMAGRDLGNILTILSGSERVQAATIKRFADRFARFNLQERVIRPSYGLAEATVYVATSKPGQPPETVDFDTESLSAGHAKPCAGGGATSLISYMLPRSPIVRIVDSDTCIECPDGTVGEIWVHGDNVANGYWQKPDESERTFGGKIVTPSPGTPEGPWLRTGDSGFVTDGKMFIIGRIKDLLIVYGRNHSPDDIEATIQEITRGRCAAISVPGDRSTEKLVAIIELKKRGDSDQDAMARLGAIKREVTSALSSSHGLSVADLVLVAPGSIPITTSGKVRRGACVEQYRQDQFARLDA

[17] = target: T7, Caspase-6 (Homo sapiens, UniProt P55212); assay: inhibition of CASP6 peptide cleavage – biochemical, VEID-R110 fluorescence, cherry-pick, dose response (AID 720632)
T7 sequence (P55212 whole entry): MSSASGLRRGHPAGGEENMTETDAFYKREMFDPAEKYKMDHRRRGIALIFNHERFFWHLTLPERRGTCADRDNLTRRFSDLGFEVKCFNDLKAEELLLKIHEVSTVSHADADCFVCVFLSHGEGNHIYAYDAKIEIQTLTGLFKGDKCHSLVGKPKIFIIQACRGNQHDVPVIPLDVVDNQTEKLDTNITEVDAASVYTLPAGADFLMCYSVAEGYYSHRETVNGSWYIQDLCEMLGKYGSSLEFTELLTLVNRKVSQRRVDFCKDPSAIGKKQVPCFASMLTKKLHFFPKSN

[18] = target: Genome polyprotein (dengue virus type 2, UniProt P29990); assay: flavivirus cap methylation enzyme inhibition – biochemical, confirmation dose response, primary screen (AID 588689); assay type: functional
Sequence of Genome polyprotein (P29990 2492-3391 limits assumed): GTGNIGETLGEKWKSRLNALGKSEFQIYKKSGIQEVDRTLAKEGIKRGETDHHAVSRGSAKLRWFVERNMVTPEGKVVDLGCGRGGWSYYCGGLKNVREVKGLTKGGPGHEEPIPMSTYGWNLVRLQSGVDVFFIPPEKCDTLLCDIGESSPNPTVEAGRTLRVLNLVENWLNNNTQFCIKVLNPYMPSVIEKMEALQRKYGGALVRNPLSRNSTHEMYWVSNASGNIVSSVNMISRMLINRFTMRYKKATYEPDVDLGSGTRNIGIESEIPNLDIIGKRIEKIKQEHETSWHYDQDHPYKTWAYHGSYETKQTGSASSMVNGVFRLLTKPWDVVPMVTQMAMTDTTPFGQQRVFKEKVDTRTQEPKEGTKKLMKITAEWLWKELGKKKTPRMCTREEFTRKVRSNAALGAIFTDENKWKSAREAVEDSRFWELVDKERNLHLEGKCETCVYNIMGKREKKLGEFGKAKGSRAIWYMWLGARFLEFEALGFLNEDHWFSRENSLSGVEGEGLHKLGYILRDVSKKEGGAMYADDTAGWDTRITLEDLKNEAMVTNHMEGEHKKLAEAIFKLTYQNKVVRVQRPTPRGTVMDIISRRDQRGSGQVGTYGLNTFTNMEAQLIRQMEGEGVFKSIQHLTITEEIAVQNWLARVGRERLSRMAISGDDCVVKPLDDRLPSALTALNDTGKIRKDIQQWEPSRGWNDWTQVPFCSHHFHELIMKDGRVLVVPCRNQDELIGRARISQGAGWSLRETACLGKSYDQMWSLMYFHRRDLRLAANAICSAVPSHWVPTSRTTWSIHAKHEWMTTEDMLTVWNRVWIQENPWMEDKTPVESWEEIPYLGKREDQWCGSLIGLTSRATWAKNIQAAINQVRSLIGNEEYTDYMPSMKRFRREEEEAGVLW

COC/C=C/C1=CC2=CC(=O)C(C)(OC(=O)c3cnc4ccccc4n3)C(=O)C2=CN1c1ccccc1 (stereo not drawn)
EC50 [1]: > 100 µM (inactive)

C=CCn1c(SCC(=O)c2ccc(O)c(O)c2)nnc1-c1cccc(OC)c1
EC50 [2]: 68 µM (active) | IC50 [3]: 77.7 µM (active) | EC50 [4]: 100 µM (inactive) | EC50 [5]: > 100 µM (inactive) | IC50 [6]: 5.55 µM (active) | IC50 [7]: 17.4 µM (active)

O=c1oc2c(cc1O)oc(=O)c1cc(O)c(O)c(O)c12
IC50 [8]: 3.19 µM (active) | IC50 [9]: > 54 µM (active) | AC50 [10]: 18.9 µM (active) | EC50 [11]: > 99 µM (inactive) | AC50 [12]: 2.35 µM (active) | EC50 [13]: 80.5 µM (inactive) | IC50 [14]: > 123 µM (inactive) | IC50 [15]: > 123 µM (inactive) | AC50 [16]: 98.7 µM (active) | AC50 [17]: 0.484 µM (active) | IC50 [18]: > 100 µM (active)
